Experimental data from patent US8338422B2, “Indolin-2-ones and aza-indolin-2-ones” (Janssen Pharmaceutica NV, priority 2007, dated 2012).
“And” between values parts separate entries of the source, which are not always exact repeats. Identical values can stand only once.

Columns and labels:
A2780 = experiment: Cellular proliferation assay (Alamar blue), A2780; assay type: cell-based; conditions: Homo sapiens, A2780, 72 h, A2780 cells, 72 hours with compound, 10% FCS, read-out: pIC50 A2780 (converted)
In short: (§1)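 Proliferation was assessed over 72 h of compound treatment, following 24 h of seeding without compound, under 10% FCS, 37° C. and 5% CO2. Fluorescent resazurin product was measured and compared with control cells.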

A549 = experiment: Cellular proliferation assay (Alamar blue), A549; assay type: cell-based; conditions: Homo sapiens, A549 cells, 72 hours with compound, 10% FCS, read-out: pIC50 A549 (converted)
Protocol: (§2) […] functional properties of these compounds was tested in cellular proliferation assays on a panel of different cell lines in the presence of 10% FCS serum (37° C. and 5% (v/v) CO2). In a first step these cells were seeded and incubated for 24 hours in the absence of compound. In the second step the cells were incubated for 72 hours with the compounds to be tested for 72 hours. The viable cell number was finally assessed in a standard Alamar blue cell viability assay.
(§3) The viable cell number was assessed by incubation for either 4 h (HCT-116, H1299, H460) 6 h (SKOV3, HT29, U87-MG, Colo205) or 24 h (A2780, PC3, MDA-MB-231, A549, MCF-7) with Alamar blue (Resazurin 9 μg/ml, K-Ferrocyanide 90 μM K-Ferricyanide 90 μM) and the converted fluorescent product was quantified on a fluorescent plate readed (544 nm/590 nm). Effect of the compounds is calculated as of on control cells.

AuroraB (h) = AuroraB (h) (Homo sapiens, UniProt Q96GD4); experiment: Aurora-B human kinase assay (SPA); assay type: biochemical; conditions: read-out: AuroraB pIC50 (converted)
In short: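 33P-phosphorylated biotin-substrate captured on streptavidin PVT SPA beads after EDTA-containing stop and imaged on Leadseeker. Reaction: 60 min at room temperature, Hepes pH 7.5 with Mg2+/Mn2+. Conditions: 0.5 μM ATP plus 2.2 nM [γ-33P]ATP, 3 μM substrate, 0.5 μg/ml human AuroraB.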

A431 = experiment: Cellular proliferation assay (Alamar blue), A431; assay type: cell-based; conditions: Homo sapiens, A-431, A431 cells, 72 hours with compound, 10% FCS, read-out: pIC50 A431 (converted)
Protocol: as §2, §3

H1299 = experiment: Cellular proliferation assay (Alamar blue), H1299; assay type: cell-based; conditions: Homo sapiens, NCI-H1299, 72 h, H1299 cells, 72 hours with compound, 10% FCS, read-out: pIC50 H1299 (converted)
In short: as §1

MDA/MB231 = experiment: Cellular proliferation assay (Alamar blue), MDA/MB231; assay type: cell-based; conditions: Homo sapiens, MDA-MB-231, 72 h, MDA/MB231 cells, 72 hours with compound, 10% FCS, read-out: pIC50 MDA/MB231 (converted)
In short: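 Seed cells, 24 h, no compound; add compound, 72 h, 10% FCS, 37° C./5% CO2; add resazurin 9 μg/ml with K-ferrocyanide and K-ferricyanide 90 μM each (4 h H460, 24 h MDA-MB-231); read fluorescence 544/590 nm; effect vs control cells.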

MCF-7 = experiment: Cellular proliferation assay (Alamar blue), MCF-7; assay type: cell-based; conditions: Homo sapiens, MCF7, MCF-7 cells, 72 hours with compound, 10% FCS, read-out: pIC50 MCF-7 (converted)
Protocol: as §2, §3

U87MG = experiment: Cellular proliferation assay (Alamar blue), U87MG; assay type: cell-based; conditions: Homo sapiens, U-87 MG, 72 h, U87MG cells, 72 hours with compound, 10% FCS, read-out: pIC50 U87MG (converted)
In short: as §1

AuroraB (h), sequence (Q96GD4 whole entry): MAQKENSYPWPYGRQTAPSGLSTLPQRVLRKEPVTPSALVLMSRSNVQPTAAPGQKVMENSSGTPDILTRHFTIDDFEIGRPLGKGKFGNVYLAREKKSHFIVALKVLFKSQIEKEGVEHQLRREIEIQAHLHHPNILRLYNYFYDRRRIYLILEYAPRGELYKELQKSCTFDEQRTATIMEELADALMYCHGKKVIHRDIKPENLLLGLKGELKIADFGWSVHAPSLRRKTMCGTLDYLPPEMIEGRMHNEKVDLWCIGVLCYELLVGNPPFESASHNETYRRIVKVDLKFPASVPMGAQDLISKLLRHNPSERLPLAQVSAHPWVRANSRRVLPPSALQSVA

IC50 (A2780) [nM]	IC50 (A549) [nM]	IC50 (AuroraB (h))	IC50 (A431) [nM]	IC50 (H1299) [nM]	IC50 (MCF-7) [nM]	IC50 (U87MG) [nM]	Structure (SMILES)	IC50 (MDA/MB231) [nM]
282	< 302	50.1 nM and 51.3 nM	1450	407	< 302	2240	COc1ccc2cc1OCCCC(=O)N(C)CCCNc1ncnc3c1/C(=C/N2)C(=O)N3 [Compound 9]	1380
–	> 10000	> 10000 nM	> 10000	> 10000	5750	–	COc1ccc2cc1OCCCCCC(=O)N1CCN(CC1)c1ncnc3c1/C(=C/N2)C(=O)N3 [Compound 18]	> 10000
2880	537	1380 nM and 1580 nM	> 10000	646	575	1620	COc1ccc2cc1OCCCC(=O)N(C)CCCN(C)c1ncnc3c1/C(=C/N2)C(=O)N3 [Compound 31]	1910
